{
  "source": "paper PMC10674160",
  "about": "“Synthesis and Preclinical Evaluation of Radiolabeled [^103Ru]BOLD-100” (Pharmaceutics, 2023)",
  "assay": "Tissue distribution in CT26 allograft bearing Balb/c mice (ICP-MS for 3a, gamma counting for 3b)",
  "format": "in vivo",
  "details": "30 mg/kg i.v.",
  "protocol": "UV/Vis spectra were recorded on a Hitachi U-2000 Dual Beam spectrophotometer. Sample activities were measured on an ISOMED 2010 dose calibrator. For centrifugation during synthesis, a Fisherbrand^TM Mini-Centrifuge from Fisher Scientific was used. Radioactive organ samples were measured on Perkin Elmer Wizard^2 gamma counter. Non-radioactive organ samples were prepared, and the ruthenium content was quantified with ICP-MS. The exact procedure including instrument information can be found in the Supplementary Materials.\nFor the evaluation of organ distribution, CT26 cells (5 × 10^5 in serum-free medium) were injected subcutaneously into the right flank of Balb/c mice. Animals were controlled for distress development every day and tumor size was assessed regularly using caliper measurements. CT26 cells were inoculated 10 days prior to drug application. Tumor volume was calculated using the formula: (length × width^2); the tumors reached a size of about 500 mm^3. Animals were treated once intravenously (i.v.) via tail-vein injection with 3a or 3b at a dose of 30 mg/kg (dissolved in 0.9% NaCl, 0.6 mg/100 µL/20 g mouse) and a specific activity of 0.64–1.36 MBq/mg for compound 3b. The mice were anesthetized and sacrificed by cervical fracture 4, 24, 48 and 72 h p.i., with n ≥ 2 (3a) and n ≥ 3 (3b) for each time point. Samples of tumor, liver, kidney, muscle, heart, lung, spleen, pancreas, stomach, colon, small intestine, brain, bone, and blood were collected from each mouse. After clotting at RT, serum was isolated from the collected blood samples by centrifugation at 3000 rpm for 10 min twice and stored together with the collected tissue samples at −20 °C. Finally, the ruthenium content was quantified by ICP-MS in the case of the non-radioactive BOLD-100 (3a) and via gamma counting for [^103Ru]BOLD-100 (3b).\nAn Agilent 7800 ICP-MS (Agilent Technologies, Tokyo, Japan) was being employed, which was equipped with an Agilent SPS 4 autosampler (Agilent Technologies, Tokyo, Japan) and a MicroMist nebulizer at a sample uptake rate of approx. 0.2 mL/min. The Agilent MassHunter software package (Workstation Software, Version C.01.04, 2018) was used for data evaluation. The instrumental parameters […]\nReference source not found..\nTa ble S1: Instrumental parameters for the ICP-MS measurements […]\nSpray chamber Scott double-pass\nSpraying chamber temp. 2°C\nNebulizer gas 1.06 L min−1\nAuxiliary gas 0.90 L min−1\nThe instrumental limit of quantification (LOQ) was determined at the start of the measurement by […]\nLOQ = blank average + 10*STD\nBlank corrections were performed for all the samples. Robustness was ensured by tuning the ICP-MS on a daily basis, by using an internal standard (115In) and measuring calibration standards for each […]\nUltrapure water (18.2 MΩ cm, ELGA Water purification system, Purelab Ultra MK 2, UK or 18.2 MΩ cm, Milli-Q Advantage, Darmstadt, Germany), HNO3 (≥69%, Rotipuran Supra, Carl Roth, Karlsruhe, Germany) and H2O2 (30%, Suprapur, Merck, Darmstadt, Germany) were used for all dilutions for ICP-MS measurements. The Ru standard solution was purchased from Labkings (Hilversum, The Netherlands).\nFor the digestion, approx. 25–50 mg of each organ sample were weighed into PFA-tubes, with 2 mL HNO3 and 100 µL H2O2 being added. The solutions were then placed on a hot plate and heated up for 6 hours using a temperature program with a maximum temperature of 200 °C. After cooling down, the liquids were transferred directly to 15 mL tubes with the remaining solution being removed from the PFA tubes by washing twice with 4 mL ultrapure water, resulting in a final volume of about 10 mL. By writing down the total weight of the resulting liquid, the dilution factor could be calculated.",
  "data": [
    {"compound": "[Cl][Ru-]([Cl])([Cl])[Cl].[Na+].c1ccc2[nH]ncc2c1.c1ccc2[nH]ncc2c1", "note": "[3a, sodium trans-[tetrachloridobis(indazole)ruthenate(III)]]", "values": [
      {"measurement": "%ID/g tissue Blood cells", "setting": "4 h p.i.", "value": "10.70 ± 4.38", "unit": "%ID/g tissue"},
      {"measurement": "%ID/g tissue Blood cells", "setting": "24 h p.i.", "value": "3.43 ± 0.83", "unit": "%ID/g tissue"},
      {"measurement": "%ID/g tissue Blood cells", "setting": "48 h p.i.", "value": "1.96 ± 1.09", "unit": "%ID/g tissue"},
      {"measurement": "%ID/g tissue Blood cells", "setting": "72 h p.i.", "value": "0.67 ± 0.86", "unit": "%ID/g tissue"},
      {"measurement": "%ID/g tissue Bones", "setting": "4 h p.i.", "value": "1.08 ± 0.25", "unit": "%ID/g tissue"},
      {"measurement": "%ID/g tissue Bones", "setting": "24 h p.i.", "value": "0.79 ± 0.20", "unit": "%ID/g tissue"},
      {"measurement": "%ID/g tissue Bones", "setting": "48 h p.i.", "value": "0.88 ± 0.16", "unit": "%ID/g tissue"},
      {"measurement": "%ID/g tissue Bones", "setting": "72 h p.i.", "value": "1.12 ± 0.35", "unit": "%ID/g tissue"},
      {"measurement": "%ID/g tissue Brain", "setting": "4 h p.i.", "value": "0.36 ± 0.19", "unit": "%ID/g tissue"},
      {"measurement": "%ID/g tissue Brain", "setting": "24 h p.i.", "value": "0.15 ± 0.07", "unit": "%ID/g tissue"},
      {"measurement": "%ID/g tissue Brain", "setting": "48 h p.i.", "value": "0.10 ± 0.02", "unit": "%ID/g tissue"},
      {"measurement": "%ID/g tissue Brain", "setting": "72 h p.i.", "value": "0.11 ± 0.00", "unit": "%ID/g tissue"},
      {"measurement": "%ID/g tissue Colon", "setting": "4 h p.i.", "value": "3.53 ± 1.27", "unit": "%ID/g tissue"},
      {"measurement": "%ID/g tissue Colon", "setting": "24 h p.i.", "value": "2.58 ± 0.13", "unit": "%ID/g tissue"},
      {"measurement": "%ID/g tissue Colon", "setting": "48 h p.i.", "value": "1.68 ± 0.58", "unit": "%ID/g tissue"},
      {"measurement": "%ID/g tissue Colon", "setting": "72 h p.i.", "value": "1.63 ± 0.00", "unit": "%ID/g tissue"},
      {"measurement": "%ID/g tissue Heart", "setting": "4 h p.i.", "value": "5.81 ± 0.94", "unit": "%ID/g tissue"},
      {"measurement": "%ID/g tissue Heart", "setting": "24 h p.i.", "value": "3.66 ± 1.31", "unit": "%ID/g tissue"},
      {"measurement": "%ID/g tissue Heart", "setting": "48 h p.i.", "value": "3.28 ± 0.63", "unit": "%ID/g tissue"},
      {"measurement": "%ID/g tissue Heart", "setting": "72 h p.i.", "value": "2.37 ± 1.97", "unit": "%ID/g tissue"},
      {"measurement": "%ID/g tissue Kidneys", "setting": "4 h p.i.", "value": "11.58 ± 1.35", "unit": "%ID/g tissue"},
      {"measurement": "%ID/g tissue Kidneys", "setting": "24 h p.i.", "value": "10.02 ± 1.09", "unit": "%ID/g tissue"},
      {"measurement": "%ID/g tissue Kidneys", "setting": "48 h p.i.", "value": "7.34 ± 4.13", "unit": "%ID/g tissue"},
      {"measurement": "%ID/g tissue Kidneys", "setting": "72 h p.i.", "value": "6.78 ± 0.18", "unit": "%ID/g tissue"},
      {"measurement": "%ID/g tissue Liver", "setting": "4 h p.i.", "value": "12.90 ± 1.14", "unit": "%ID/g tissue"},
      {"measurement": "%ID/g tissue Liver", "setting": "24 h p.i.", "value": "9.84 ± 0.60", "unit": "%ID/g tissue"},
      {"measurement": "%ID/g tissue Liver", "setting": "48 h p.i.", "value": "8.96 ± 3.11", "unit": "%ID/g tissue"},
      {"measurement": "%ID/g tissue Liver", "setting": "72 h p.i.", "value": "7.90 ± 0.35", "unit": "%ID/g tissue"},
      {"measurement": "%ID/g tissue Lung", "setting": "4 h p.i.", "value": "8.24 ± 2.06", "unit": "%ID/g tissue"},
      {"measurement": "%ID/g tissue Lung", "setting": "24 h p.i.", "value": "4.84 ± 0.53", "unit": "%ID/g tissue"},
      {"measurement": "%ID/g tissue Lung", "setting": "48 h p.i.", "value": "4.64 ± 0.94", "unit": "%ID/g tissue"},
      {"measurement": "%ID/g tissue Lung", "setting": "72 h p.i.", "value": "4.41 ± 1.94", "unit": "%ID/g tissue"},
      {"measurement": "%ID/g tissue Muscle", "setting": "4 h p.i.", "value": "0.82 ± 0.18", "unit": "%ID/g tissue"},
      {"measurement": "%ID/g tissue Muscle", "setting": "24 h p.i.", "value": "0.99 ± 0.28", "unit": "%ID/g tissue"},
      {"measurement": "%ID/g tissue Muscle", "setting": "48 h p.i.", "value": "0.66 ± 0.16", "unit": "%ID/g tissue"},
      {"measurement": "%ID/g tissue Muscle", "setting": "72 h p.i.", "value": "0.84 ± 0.02", "unit": "%ID/g tissue"},
      {"measurement": "%ID/g tissue Pancreas", "setting": "4 h p.i.", "value": "5.14 ± 2.01", "unit": "%ID/g tissue"},
      {"measurement": "%ID/g tissue Pancreas", "setting": "24 h p.i.", "value": "2.81 ± 0.68", "unit": "%ID/g tissue"},
      {"measurement": "%ID/g tissue Pancreas", "setting": "48 h p.i.", "value": "3.18 ± 0.85", "unit": "%ID/g tissue"},
      {"measurement": "%ID/g tissue Pancreas", "setting": "72 h p.i.", "value": "2.19 ± 0.01", "unit": "%ID/g tissue"},
      {"measurement": "%ID/g tissue Serum", "setting": "4 h p.i.", "value": "24.85 ± 0.85", "unit": "%ID/g tissue"},
      {"measurement": "%ID/g tissue Serum", "setting": "24 h p.i.", "value": "9.26 ± 1.03", "unit": "%ID/g tissue"},
      {"measurement": "%ID/g tissue Serum", "setting": "48 h p.i.", "value": "6.29 ± 1.02", "unit": "%ID/g tissue"},
      {"measurement": "%ID/g tissue Serum", "setting": "72 h p.i.", "value": "1.41 ± 1.56", "unit": "%ID/g tissue"},
      {"measurement": "%ID/g tissue Small intestine", "setting": "4 h p.i.", "value": "6.38 ± 3.36", "unit": "%ID/g tissue"},
      {"measurement": "%ID/g tissue Small intestine", "setting": "24 h p.i.", "value": "3.78 ± 0.51", "unit": "%ID/g tissue"},
      {"measurement": "%ID/g tissue Small intestine", "setting": "48 h p.i.", "value": "3.28 ± 2.02", "unit": "%ID/g tissue"},
      {"measurement": "%ID/g tissue Spleen", "setting": "4 h p.i.", "value": "4.23 ± 0.68", "unit": "%ID/g tissue"},
      {"measurement": "%ID/g tissue Spleen", "setting": "24 h p.i.", "value": "4.02 ± 0.71", "unit": "%ID/g tissue"},
      {"measurement": "%ID/g tissue Spleen", "setting": "48 h p.i.", "value": "4.59 ± 1.57", "unit": "%ID/g tissue"},
      {"measurement": "%ID/g tissue Spleen", "setting": "72 h p.i.", "value": "3.92 ± 1.93", "unit": "%ID/g tissue"},
      {"measurement": "%ID/g tissue Stomach", "setting": "4 h p.i.", "value": "2.57 ± 0.29", "unit": "%ID/g tissue"},
      {"measurement": "%ID/g tissue Stomach", "setting": "24 h p.i.", "value": "2.13 ± 0.17", "unit": "%ID/g tissue"},
      {"measurement": "%ID/g tissue Stomach", "setting": "48 h p.i.", "value": "1.76 ± 0.77", "unit": "%ID/g tissue"},
      {"measurement": "%ID/g tissue Stomach", "setting": "72 h p.i.", "value": "1.40 ± 0.01", "unit": "%ID/g tissue"},
      {"measurement": "%ID/g tissue Tumor", "setting": "4 h p.i.", "value": "4.43 ± 1.20", "unit": "%ID/g tissue"},
      {"measurement": "%ID/g tissue Tumor", "setting": "24 h p.i.", "value": "8.34 ± 1.36", "unit": "%ID/g tissue"},
      {"measurement": "%ID/g tissue Tumor", "setting": "48 h p.i.", "value": "7.64 ± 1.78", "unit": "%ID/g tissue"},
      {"measurement": "%ID/g tissue Tumor", "setting": "72 h p.i.", "value": "5.32 ± 1.22", "unit": "%ID/g tissue"}
    ]}
  ]
}
